The subject of experiment [1] is Bacillus licheniformis (BL) ATCC 14580. The experiment is classed as cell-based. The settings on record: ATCC 14580. In outline:
(§1)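 Overnight LB cultures, 37 °C → mid-log → 5 × 10^5 CFU/mL; 1:1 with serially diluted peptides, o/n 37 °C, ambient air. MIC = lowest conc. inhibiting growth (plate reader). n = 3, mean reported.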

Experiment [2] concerns Roseomonas mucosa (RM) ATCC BAA-692. The experiment is classed as cell-based. In short, it runs like this:
as §1

The test system of experiment [3] is Sphingomonas paucimobilis (SP). The experiment is classed as cell-based. In outline: as §1
A further experiment has as its system BL+DN coculture. The experiment is classed as cell-based, B. licheniformis + D. nishinomiyaensis. The procedure: (§2) All of the bacterial species were grown overnight at 37 °C in LB broth. 10^7 CFU/mL of cells were resuspended in fresh culture and grown until the mid log phase. , The bacterial cells were adjusted to a concentration of 5 × 10^5 CFU/mL to quantify the MIC. Equal volumes of the respective bacterial cultures were incubated with the serially diluted peptides in 96-well microtiter plate and incubated overnight at 37 °C in ambient air. Microorganisms without peptides were treated as the positive control, while uninoculated broth was used as the negative control. The MIC was taken as the lowest peptide concentration at which observable bacteria growth was inhibited, as measured by a microplate reader (Biotek Synergy H1 microplate reader). Experiments were performed in triplicates, and the mean MIC values were determined. A similar study was performed to understand the effect of peptide purity, i.e., ranging from 70 to 95%, on the peptide MIC. […]
(§3) fresh medium at equal proportions (v/v). Multiple combinations of microbial cocultures were prepared […]
(§4) Table S2. Schematic representation of the microbial cocultures grown in lab.
(§5) Bacterial clusters Fungal clusters
(§6) Gram-positive Gram-negative
(§7) Actinobacteria/DN Firmicutes/BL Proteobacteria/SP Ascomycota/HR […]
(§8) (b) The three upper panels […]
(§9) controlling the growth of microbial cocultures.

For a further experiment, the system named is SP+BL coculture. It is filed as cell-based, S. paucimobilis + B. licheniformis. The procedure: as §2, §3, §4, §5, §6, §7, §8, §9
Another experiment relates to DN+SP coculture. It is filed as cell-based, D. nishinomiyaensis + S. paucimobilis. The procedure: as §2, §3, §4, §5, §6, §7, §8, §9
The test system of another experiment is HR+SP coculture. It is filed as cell-based, H. resinae + S. paucimobilis. The procedure: as §2, §3, §4, §5, §6, §7, §8, §9
A further experiment concerns HR+DN coculture. It is filed as cell-based, H. resinae + D. nishinomiyaensis. The procedure:
as §2, §3, §4, §5, §6, §7, §8, §9

Another experiment relates to HR+BL coculture. The experiment is classed as cell-based, H. resinae + B. licheniformis. The procedure:
as §2, §3, §4, §5, §6, §7, §8, §9

The test system of another experiment is HR+BL+SP coculture. It is filed as cell-based, H. resinae + B. licheniformis + S. paucimobilis. The procedure: as §2, §3, §4, §5, §6, §7, §8, §9
The subject of a further experiment is HR+BL+DN coculture. It is filed as cell-based, H. resinae + B. licheniformis + D. nishinomiyaensis. The procedure: as §2, §3, §4, §5, §6, §7, §8, §9
A further experiment concerns HR+DN+SP coculture. It is filed as cell-based, H. resinae + D. nishinomiyaensis + S. paucimobilis. The procedure:
as §2, §3, §4, §5, §6, §7, §8, §9

Another experiment has as its system B. licheniformis. The experiment is classed as cell-based, Bacillus licheniformis. Conditions: 2 h. The procedure: (§10) The stability of the peptides against one Gram-positive (B. licheniformis) and Gram-negative (S. paucimobilis) bacteria was assessed by determining their MIC in chymotrypsin (protease), serum, and salt (NaCl). The experiments were adopted from Selvarajan et.al. The fold change in MIC with respect to the control was calculated and determined for each peptide against the microbial clusters.
(§11) To determine the susceptibility of the engineered peptides, which are abundant in Trp, to protease degradation, chymotrypsin, which cleaves Tyr, Phe, and Trp at physiological pH was chosen as the model protease. The protocol described by Wang et.al. (2014) was used with slight modifications. Peptides were incubated with chymotrypsin at a molar ratio of 40:1 (peptide: protease) in 10 mM PBS buffer (pH7.4) at 37 °C, and samples were analyzed after 2 h. The enzyme reaction was terminated by incubating the samples at 80 °C for 10 min. The incubated peptide mixtures were then serially diluted in 96-well plates to determine the MIC values of the microbial strains.
(§12) The stability of the peptides in the presence of the serum was tested using a 10% fetal bovine serum (heat inactivated).
(§13) We also studied the effects of 600 mM NaCl (in vitro) and natural seawater (NSW) on the MICs of the engineered peptides.

A further experiment deals with S. paucimobilis. It is filed as cell-based, Sphingomonas paucimobilis. The settings on record: 2 h. The procedure: as §10, §11, §12, §13
Experiment [4] has as its system Dermacoccus nishinomiyaensis (DN) ATCC 29093. The experiment is classed as cell-based. In outline:
as §1

The test system of experiment [5] is Macrococcus caseolyticus (MC) ATCC 13548. It is filed as cell-based. In short, it runs like this:
as §1

Experiment [6] concerns Micrococcus yunnanensis (MY) ATCC 12698. The experiment is classed as cell-based. In short, it runs like this:
as §1

The test system of experiment [7] is Pseudomonas aeruginosa (PA) ATCC 39327. The experiment is classed as cell-based. Conditions: ATCC 39327. In outline: as §1
The test system of experiment [8] is Kocuria rosea (KR) ATCC 186. It is filed as cell-based. In outline: as §1
For experiment [9], the system named is Hormoconis resinae (HR) ATCC 20267. The experiment is classed as cell-based. The procedure:
All of the bacterial species were grown overnight at 37 °C in LB broth. 10^7 CFU/mL of cells were resuspended in fresh culture and grown until the mid log phase. , The bacterial cells were adjusted to a concentration of 5 × 10^5 CFU/mL to quantify the MIC. Equal volumes of the respective bacterial cultures were incubated with the serially diluted peptides in 96-well microtiter plate and incubated overnight at 37 °C in ambient air. Microorganisms without peptides were treated as the positive control, while uninoculated broth was used as the negative control. The MIC was taken as the lowest peptide concentration at which observable bacteria growth was inhibited, as measured by a microplate reader (Biotek Synergy H1 microplate reader). Experiments were performed in triplicates, and the mean MIC values were determined. A similar study was performed to understand the effect of peptide purity, i.e., ranging from 70 to 95%, on the peptide MIC.
The same experimental procedures that were conducted for the antibacterial assay were used to determine the MIC of the peptides against the fungal strain, H. resinae.

Data on three compounds can be found in PMC12442081, “Combating Fuel Biocontamination: Tailored Antimicrobial Peptides and an Innovative Delivery Strategy” (ACS Applied Bio Materials, 2025).

For `CC[C@H](C)[C@H](N)C(=O)N[C@@H](CC(C)C)C(=O)N1CCC[C@H]1C(=O)N[C@@H](Cc1c[nH]c2ccccc12)C(=O)N[C@@H](CCCCN)C(=O)N[C@@H](Cc1c[nH]c2ccccc12)C(=O)N1CCC[C@H]1C(=O)N[C@@H](Cc1c[nH]c2ccccc12)C(=O)N[C@@H](Cc1c[nH]c2ccccc12)C(=O)N1CCC[C@H]1C(=O)N[C@@H](Cc1c[nH]c2ccccc12)C(=O)N[C@@H](CCCCN)C(=O)N[C@@H](CCCNC(=N)N)C(=O)O` [P3], the MIC in experiment [1] was 1.9 µM; in experiment [2], 1.9 µM; in experiment [3], 1.9 µM; with BL+DN coculture it was 30 µM; in the experiment on SP+BL coculture it was 1.87 µM; in the experiment with DN+SP coculture it was 3.7 µM. Also, the MIC in the experiment with HR+SP coculture was found to be 0.9 µM; in the experiment on HR+DN coculture, 0.9 µM; in the experiment with HR+BL coculture, 0.9 µM; with HR+BL+SP coculture, 3.7 µM; in the experiment with HR+BL+DN coculture it was 7.5 µM; in the experiment on HR+DN+SP coculture, 15 µM. The “MIC under different treatments” value in the experiment with B. licheniformis and against S. paucimobilis was at most 4 µM in each case.
In the case of `CC[C@H](C)[C@H](N)C(=O)N[C@@H](CC(C)C)C(=O)N1CCC[C@H]1C(=O)N[C@@H](Cc1ccccc1)C(=O)N[C@@H](CCCCN)C(=O)N[C@@H](Cc1c[nH]c2ccccc12)C(=O)N1CCC[C@H]1C(=O)N[C@@H](Cc1c[nH]c2ccccc12)C(=O)N[C@@H](Cc1c[nH]c2ccccc12)C(=O)N1CCC[C@H]1C(=O)N[C@@H](Cc1c[nH]c2ccccc12)C(=O)N[C@@H](CCCNC(=N)N)C(=O)N[C@@H](CCCNC(=N)N)C(=O)O` [P11], the MIC in experiment [1] turned out to be 1.9 µM; in experiment [4] it was 0.9 µM; in [5], 0.9 µM; in experiment [6], 0.9 µM; in experiment [7], 1.9 µM; in experiment [3] it was 1.9 µM. The MIC in the experiment on BL+DN coculture amounted to 60 µM; with SP+BL coculture, 120 µM; in the experiment with DN+SP coculture it was 30 µM; with HR+SP coculture, 30 µM; in the experiment on HR+DN coculture it was 1.87 µM; in the experiment with HR+BL coculture, 3.7 µM. Further, the figures for the MIC in the experiment with HR+BL+SP coculture, in the experiment on HR+BL+DN coculture and in the experiment on HR+DN+SP coculture were 1.87 µM, 1.87 µM and 3.7 µM, respectively. Moreover, the “MIC under different treatments” value against B. licheniformis and in the experiment on S. paucimobilis was at most 4 µM throughout.
Regarding `CC[C@H](C)[C@H](N)C(=O)N[C@@H](CC(C)C)C(=O)N[C@@H](Cc1ccc(O)cc1)C(=O)N[C@@H](Cc1c[nH]c2ccccc12)C(=O)N[C@@H](CCCCN)C(=O)N[C@@H](Cc1c[nH]c2ccccc12)C(=O)N1CCC[C@H]1C(=O)N[C@@H](Cc1c[nH]c2ccccc12)C(=O)N[C@@H](Cc1c[nH]c2ccccc12)C(=O)N1CCC[C@H]1C(=O)N[C@@H](Cc1c[nH]c2ccccc12)C(=O)N[C@@H](CCCNC(=N)N)C(=O)N[C@@H](CCCNC(=N)N)C(=O)O` [P17], the MIC in [1] was 0.9 µM; in experiment [4] it was 0.9 µM; in [8] it was 1.9 µM; in experiment [5], 1.9 µM; in experiment [6], 0.9 µM; in experiment [7] it was 3.8 µM. Moreover, the MIC in experiment [3] amounted to 0.9 µM; in experiment [9] it was 3.8 µM; in the experiment with BL+DN coculture, 1.87 µM; with SP+BL coculture, 7.5 µM; with DN+SP coculture, 15 µM; in the experiment with HR+SP coculture, 7.5 µM. Moreover, the MIC in the experiment on HR+DN coculture came out at 0.9 µM; in the experiment with HR+BL coculture it was 7.5 µM; in the experiment with HR+BL+SP coculture, 0.9 µM; with HR+BL+DN coculture it was 0.9 µM; in the experiment with HR+DN+SP coculture, 7.5 µM. The “MIC under different treatments” value against B. licheniformis and against S. paucimobilis was at most 4 µM each time.

For orientation: MIC means the least concentration at which growth counts as inhibited.
